From US20100099917A1, “Integrin modulators and methods for their use” (Billings Pharmaceuticals, Inc., priority 2004, published 2010)

Key:
[1] = test system: HIV-1RF-infected H9 cells; experiment: Inhibition of HIV-induced syncytium formation (uninfected H9 cells with HIV-1RF-infected H9 cells); type: cell-based; settings: for IC100 of syncytium formation: H9 + HIV-1RF-infected H9 cells, 6 to 15 hours at 37° C.
Method: The purified enantiomers were taken up in DMSO at a concentration of 10 mg/mL. Dilutions were made in RPMI 1640 medium containing 10% fetal calf serum and 10 mM HEPES (cRPMI). H9 cells (ATCC, Rockville, Md.) infected with HIV-1RF (NIH AIDS Repository, Rockville, Md.) and uninfected H9 cells were washed with cRPMI and resuspended in cRPMI at a density of 4×10^6 per mL. Uninfected cells (50 μL) were mixed with serial dilutions of the compounds (100 μL) and incubated at 37° C. for 30 min before adding and mixing 50 μL of infected H9 cells. The plates were incubated at 37° C. for 6 to 15 hours before scoring syncytium formation.
For all the curves, the effect of ajoene enantiomers and enantiomer mixtures on the fusion of cultured, intact H9 cells with HIV-1RF-infected H9 cells is disclosed. The vertical graph axis expresses the maximum amount of syncytia formed in the absence of the compounds (100 percent), while the points on the curves represent percentages of such an amount of syncytia formed in the presence of varying concentrations of the compounds and compound mixtures (micromoles per liter).

VLA-4 = target: T1, VLA-4 (Homo sapiens, UniProt P05556+P13612); experiment: Inhibition of VLA-4-mediated adhesion of HRP-labeled PMI cells to VCAM-1-coated substrata; type: cell-based
T1 construct: VLA-4-mediated adhesion of enzyme-labeled PM1 cells to VCAM-1-coated artificial substrata; host or cells: PM1 (printed 'PMI') cells
Method: In addition, the present invention provides methods whereby the integrin-modulating activity of DDCs may be assessed. One such method involves VLA-4-mediated adhesion of enzyme-labeled PM1 cells to VCAM-1-coated artificial substrata. Specifically, the cells are exposed to isolated DDC enantiomers (or the vehicle thereof) and allowed to adhere or not adhere to immobilized VCAM-1. Thereafter, the adherent cells are lysed and, following addition of the substrate of the enzyme and incubation, the activity of the enzyme is measured spectrophotometrically. The value of this parameter, characterizing the number of the adherent cells, is inversely proportional to integrin-modulating activity of the compound. Another such method is based on the inhibition of HIV-mediated syncytium formation, a phenomenon known to depend on integrin-mediated functions. Yet another method is based on the inhibition of cell-to-cell HIV transmission, a process also dependent on integrin-mediated functions. Modulating activity of integrin-mediated functions by the enantiomers was compared in a well-defined system of inhibition of VLA-4-mediated adhesion of enzyme-labeled PMI cells (NIH AIDS Repository, Rockville, Md.) to VCAM-1-coated artificial substrata. […] The reaction was stopped with 0.5 M H2SO4, and the optical density of the wells was read at 450 nm. […]

[2] = test system: U937 cells infected with HIV-1 RT; experiment: Inhibition of syncytium formation (MT2 cells with HIV-1 RT-infected U937 cells); type: cell-based; settings: MT2 + HIV-1 RT-infected U937 cells, 13 hours
[3] = target: platelet integrin, GP IIb/IIIa (Homo sapiens, UniProt P05106+P08514); settings: allosteric inactivation of GP IIb/IIIa; cited from earlier work
[4] = test system: adhesion-dependent processes; settings: mixtures of E- and Z-isomers; cited from earlier work

T1 sequence (P13612 34-1032): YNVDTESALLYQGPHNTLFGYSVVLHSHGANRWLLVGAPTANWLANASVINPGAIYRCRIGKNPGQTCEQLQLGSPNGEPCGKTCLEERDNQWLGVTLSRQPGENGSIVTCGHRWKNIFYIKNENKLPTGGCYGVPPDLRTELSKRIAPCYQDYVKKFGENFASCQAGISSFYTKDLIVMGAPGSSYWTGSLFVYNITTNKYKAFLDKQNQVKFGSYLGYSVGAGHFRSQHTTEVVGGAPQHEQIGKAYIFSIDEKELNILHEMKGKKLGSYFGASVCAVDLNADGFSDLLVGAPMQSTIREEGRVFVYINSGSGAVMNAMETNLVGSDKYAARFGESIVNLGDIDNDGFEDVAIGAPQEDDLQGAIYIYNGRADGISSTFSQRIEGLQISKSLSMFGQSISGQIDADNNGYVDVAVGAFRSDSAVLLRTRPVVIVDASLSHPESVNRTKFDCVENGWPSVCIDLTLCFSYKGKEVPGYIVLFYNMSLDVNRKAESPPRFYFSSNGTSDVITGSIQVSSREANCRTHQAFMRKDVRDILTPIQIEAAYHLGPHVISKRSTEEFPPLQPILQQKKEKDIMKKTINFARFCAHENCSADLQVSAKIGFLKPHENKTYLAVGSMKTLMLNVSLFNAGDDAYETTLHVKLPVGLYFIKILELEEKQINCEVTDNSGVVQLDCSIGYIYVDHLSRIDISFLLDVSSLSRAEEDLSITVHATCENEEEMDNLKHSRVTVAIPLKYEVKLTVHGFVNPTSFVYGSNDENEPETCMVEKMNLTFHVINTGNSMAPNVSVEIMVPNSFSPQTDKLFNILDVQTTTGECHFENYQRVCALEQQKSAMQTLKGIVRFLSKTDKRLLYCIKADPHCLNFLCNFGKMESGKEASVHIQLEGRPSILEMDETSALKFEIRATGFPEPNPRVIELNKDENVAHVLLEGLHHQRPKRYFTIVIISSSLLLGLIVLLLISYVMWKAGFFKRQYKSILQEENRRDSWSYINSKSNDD
T1 sequence (P05556 21-798): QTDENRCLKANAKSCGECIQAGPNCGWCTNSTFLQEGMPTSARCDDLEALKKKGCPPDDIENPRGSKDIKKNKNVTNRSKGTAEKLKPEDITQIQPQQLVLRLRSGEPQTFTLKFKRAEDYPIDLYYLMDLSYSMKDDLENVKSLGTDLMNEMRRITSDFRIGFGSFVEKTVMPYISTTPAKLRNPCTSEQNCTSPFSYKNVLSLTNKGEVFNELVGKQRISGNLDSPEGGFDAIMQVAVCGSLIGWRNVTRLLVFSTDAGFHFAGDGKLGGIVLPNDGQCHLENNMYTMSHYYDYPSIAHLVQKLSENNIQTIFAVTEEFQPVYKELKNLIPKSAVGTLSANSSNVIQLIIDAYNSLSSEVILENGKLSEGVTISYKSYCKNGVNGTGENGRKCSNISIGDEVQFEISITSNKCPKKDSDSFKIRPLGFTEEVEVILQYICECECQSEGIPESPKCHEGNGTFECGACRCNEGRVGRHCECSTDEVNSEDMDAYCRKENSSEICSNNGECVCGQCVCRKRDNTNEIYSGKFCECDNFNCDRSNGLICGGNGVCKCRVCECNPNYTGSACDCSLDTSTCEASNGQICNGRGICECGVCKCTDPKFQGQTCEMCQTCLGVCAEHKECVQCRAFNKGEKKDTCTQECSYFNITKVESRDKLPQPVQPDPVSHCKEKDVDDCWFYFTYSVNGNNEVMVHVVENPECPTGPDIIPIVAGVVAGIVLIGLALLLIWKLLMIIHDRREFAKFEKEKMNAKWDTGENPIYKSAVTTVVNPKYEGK
platelet integrin, GP IIb/IIIa, sequence (P08514 32-887 limits assumed): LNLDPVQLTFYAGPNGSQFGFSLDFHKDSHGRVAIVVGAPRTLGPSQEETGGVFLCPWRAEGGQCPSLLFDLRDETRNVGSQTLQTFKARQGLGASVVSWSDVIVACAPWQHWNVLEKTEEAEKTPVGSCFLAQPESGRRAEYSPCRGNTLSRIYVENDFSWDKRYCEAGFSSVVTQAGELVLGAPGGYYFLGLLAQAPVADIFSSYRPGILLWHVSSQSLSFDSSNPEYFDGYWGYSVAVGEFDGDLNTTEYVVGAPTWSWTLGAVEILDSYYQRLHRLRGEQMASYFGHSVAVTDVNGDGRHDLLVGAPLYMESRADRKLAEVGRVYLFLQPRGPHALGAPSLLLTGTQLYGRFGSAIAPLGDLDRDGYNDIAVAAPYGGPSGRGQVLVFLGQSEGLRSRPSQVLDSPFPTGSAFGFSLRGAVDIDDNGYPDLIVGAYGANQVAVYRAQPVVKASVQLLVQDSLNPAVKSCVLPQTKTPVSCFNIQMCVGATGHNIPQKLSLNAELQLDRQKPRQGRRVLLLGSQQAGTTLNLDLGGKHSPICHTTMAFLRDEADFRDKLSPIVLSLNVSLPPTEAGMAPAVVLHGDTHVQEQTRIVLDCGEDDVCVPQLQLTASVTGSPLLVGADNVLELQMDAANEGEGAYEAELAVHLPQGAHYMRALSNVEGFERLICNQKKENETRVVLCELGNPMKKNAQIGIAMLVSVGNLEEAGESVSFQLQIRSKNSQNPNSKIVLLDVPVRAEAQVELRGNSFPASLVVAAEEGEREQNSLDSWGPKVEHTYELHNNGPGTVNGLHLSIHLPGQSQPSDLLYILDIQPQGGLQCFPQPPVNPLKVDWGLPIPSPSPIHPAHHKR
platelet integrin, GP IIb/IIIa, sequence (P08514 891-1039 limits assumed): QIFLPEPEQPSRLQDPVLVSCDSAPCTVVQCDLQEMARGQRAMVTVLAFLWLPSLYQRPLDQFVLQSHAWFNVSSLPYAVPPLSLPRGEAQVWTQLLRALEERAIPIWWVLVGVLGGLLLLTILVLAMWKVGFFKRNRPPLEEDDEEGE
platelet integrin, GP IIb/IIIa, sequence (P05106 27-788): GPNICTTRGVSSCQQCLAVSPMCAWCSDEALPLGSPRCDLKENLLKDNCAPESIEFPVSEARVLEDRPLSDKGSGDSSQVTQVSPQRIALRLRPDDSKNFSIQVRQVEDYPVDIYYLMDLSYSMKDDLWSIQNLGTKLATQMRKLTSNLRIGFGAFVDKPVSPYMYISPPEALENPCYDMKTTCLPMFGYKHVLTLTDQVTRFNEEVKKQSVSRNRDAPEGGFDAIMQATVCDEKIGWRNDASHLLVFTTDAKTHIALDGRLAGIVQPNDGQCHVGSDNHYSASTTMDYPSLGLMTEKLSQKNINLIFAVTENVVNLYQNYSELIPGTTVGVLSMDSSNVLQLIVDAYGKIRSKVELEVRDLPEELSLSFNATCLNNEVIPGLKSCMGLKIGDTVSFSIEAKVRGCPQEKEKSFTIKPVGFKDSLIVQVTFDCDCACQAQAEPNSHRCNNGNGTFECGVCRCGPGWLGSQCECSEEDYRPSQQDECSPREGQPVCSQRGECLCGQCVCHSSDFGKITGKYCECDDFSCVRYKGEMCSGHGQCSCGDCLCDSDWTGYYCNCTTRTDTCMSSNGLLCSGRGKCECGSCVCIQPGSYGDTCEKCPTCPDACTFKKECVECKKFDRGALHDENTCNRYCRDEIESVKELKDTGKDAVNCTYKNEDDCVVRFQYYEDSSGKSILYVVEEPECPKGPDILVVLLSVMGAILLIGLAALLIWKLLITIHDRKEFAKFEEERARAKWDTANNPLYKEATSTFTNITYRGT

## C=CCSS/C=C/C[S+]([O-])CC=C (racemic) [racemic (E)-ajoene, reference compound]
[1]
  IC100 of syncytium formation: 50 micromoles per liter

## C=CCSS/C=C\C[S+]([O-])CC=C (stereo not drawn) [(Z)-(+) counterpart]
[1]
  IC100 of syncytium formation: 50 micromoles per liter

## C=CCSS/C=C\C[S+]([O-])CC=C (stereo not drawn) [(Z)-(−)-enantiomer, (Z)-(−)-4,5,9-trithiadodeca-1,6,11-triene-9-oxide]
VLA-4; PMI cells on VCAM-1, optical density read at 450 nm
  adhesion-inhibiting activity, fold higher than any other enantiomer of the original 3:1 mixture: 4 fold
VLA-4; conclusion from Examples 2 and 3 taken together
  activity compared with the parent racemates (E-, Z-ajoenes and mixtures): significantly higher
[2]
  syncytium formation inhibition, result compared with the H9 system: A similar result was obtained
[1]
  IC100 of syncytium formation: 12.5 micromoles per liter
[1]; summary statement in the description, covers Examples 2 and 3
  activity as an integrin modulator relative to other enantiomers, racemic E-ajoene or the unseparated 3:1 mixture: at least four times more active
[1]; syncytium formation, FIG. 1 curves
  activity relative to (Z)-(+) counterpart, racemic (E)-ajoene or the unseparated 3:1 mixture: at least four times more active

## C=CCSS/C=C/C[S+]([O-])CC=C (stereo not shown) [ajoene, 4,5,9-trithiadodeca-1,6,11-triene-9-oxide]
[3]
  effect on platelet aggregation: inhibit platelet aggregation
[4]
  inhibition of adhesion-dependent processes: potent inhibitor
